Assay results from patent US9206162B2, “Triazole compounds that modulate Hsp90 activity” (Synta Pharmaceuticals Corp., priority 2006, dated 2015).

Legend:
[1] = test system: Hsp90; assay: Degradation of Hsp90 client proteins, Method 2: IC50 for Her2 degradation / inhibition of Hsp90 (MV-4-11 cell survival, Cell Counting Kit-8); format: cell-based, human; details: Table 9, MV-4-11 cells, 72 hours, read-out: IC50 Range
[2] = test system: Her2; assay: Degradation of Her2 in BT-474 cells, Method 1 (Western blot); format: cell-based, human; details: 0.5 μM, overnight
Protocol: A. Cells and Cell Culture Human high-Her2 breast carcinoma BT474 (HTB-20), SK-BR-3 (HTB-30) and MCF-7 breast carcinoma (HTB-22) from American Type Culture Collection, VA, USA were grown in Dulbecco's modified Eagle's medium with 4 mM L-glutamine and antibiotics ([…] penicillin and 100 ug/ml streptomycine; GibcoBRL). To obtain exponential cell growth, cells were trypsinized, counted and seeded at a cell density of 0.5×10^6 cells/ml regularly, every 3 days. All experiments were performed on day 1 after cell passage. B. Degradation of her2 in Cells after Treatment with a Compound of the Invention
BT-474 cells are treated with 0.5 μM, 2 μM, or 5 μM of 17AAG (a positive control) or 0.5 μM, 2 μM, or 5 μM of a compound of the invention overnight in DMEM medium. After treatment, each cytoplasmic sample is prepared from 1×10^6 cells by incubation of cell lysis buffer (#9803, cell Signaling Technology) on ice for 10 minutes. The resulting supernatant used as the cytosol fractions is dissolved with sample buffer for SDS-PAGE and run on a SDS-PAGE gel, blotted onto a nitrocellulose membrane by using semi-dry transfer. Non-specific binding to nitrocellulose is blocked with 5% skim milk in TBS with 0.5% Tween at room temperature for 1 hour, then probed with anti-Her2/ErB2 mAb (rabbit IgG, #2242, Cell Signaling) and anti-Tubulin (T9026, Sigma) as housekeeping control protein. […]

Compound: COCCN(C)c1ccc(-n2c(O)nnc2-c2cc(C(C)C)c(O)cc2O)c[n+]1[O-] [Compound 3d]
- IC50 [1]: 180 nM

Compound: C=CCNC1=C2C[C@@H](C)C[C@H](OC)[C@H](O)[C@@H](C)/C=C(\C)[C@H](OC(N)=O)[C@@H](OC)/C=C\C=C(/C)C(=O)NC(=CC1=O)C2=O [Compound 17AAG, 17-allylamino-17-demethoxygeldanamycin]
- degradation of Her2 [2]: partial degradation
